Where a name gives a salt, the structure may show the parent alone. One block for each molecule: values may come before it.
What was measured:
[1] = Solubility in PBS buffer (pH 7.4) for PAMPA donor solutions; type: physicochemical; conditions: PBS pH 7.4; used at 100 µM instead of 250 µM nominal concentration
[2] = PAMPA with HA-855 + agar (HA 0.07 w/v%; agar 0.095 w/v%) as acceptor medium; conditions: for permeability decrease with HA-855 + agar compared with agar alone: cationic compounds, acceptor HA-855 + agar vs agar
Description: Finally, the solutions were stored at room temperature overnight.
(§1) For each assay 3 replicates per compounds were measured.
In their study three types of HA-agar hydrogels were investigated with various HA and agar content from rheological and particle migration aspects. Hyaluronate as a viscoelastic polymer is an essential part of the model (as a native component of the VH itself) while agar is used to achieve elasticity and so to mimic the properties of the naturally occurring collagen fibrils. As a result of their study, they found the hydrogel containing 0.7 mg/ml (0.07 w/v%) HA (high molecular weight) and 0.95 mg/ml (0.095 w/v%) agar to be the most similar to bovine VH in the above-mentioned experiments. Since they conducted no permeability measurements with this promising hydrogel, we tested it as an acceptor medium in the PAMPA measurements. To gain further insight, experiments using only agar-containing acceptor phase were also carried out, since the standalone effect of the high molecular weight Na-HA was already investigated.

[3] = PAMPA with HA-200 (0.1 w/v%) as acceptor medium; conditions: HA (HA-200, HA-855; 0.1 w/v%) as acceptor-phase component; very low permeability and interference of HA with absorbance signal
[4] = Modified corneal-PAMPA, PBS as acceptor medium, UV-vis plate reader; type: in vitro ADME; conditions: general trend regardless of the acceptor medium
[5] = PAMPA with freshly excised porcine vitreous humor as acceptor medium; type: in vitro ADME; conditions: 250 µM API in PBS; UV detection; also after precipitation and filtering
Description: as §1
There has been an attempt made to use freshly excised porcine vitreous as acceptor medium in the experiments, for three APIs with sufficient absorption at a wavelength closer to the visible range (~ 300 nm) considering the cut-off of VH. […] When preparing the equilibrium solutions, one unit of API solution (250 µM, PBS) was mixed with (approximately) two units of VH. […] To gain clear spectra by removing background components, precipitation was attempted using cold acetonitrile, centrifugation, and filtration. […] The sample preparation process of VH containing samples was not further improved or investigated in this study.

solubility (qualitative) [1]: poor solubility
SMILES: NC(=O)N1c2ccccc2C=Cc2ccccc21 [carbamazepine]

SMILES: CCN(CC)CCCC(C)Nc1ccnc2cc(Cl)ccc12 (centres unmarked) [chloroquine diphosphate]
permeability decrease with HA-855 + agar compared with agar alone [2]: decrease the permeability in a greater extent than agar alone

solubility (qualitative) [1]: poor solubility
SMILES: C[C@@H]1C[C@H]2[C@@H]3CCC4=CC(=O)C=C[C@]4(C)[C@@]3(F)[C@@H](O)C[C@]2(C)[C@@]1(O)C(=O)CO [dexamethasone]
detection in the acceptor medium [3]: could not be detected in the acceptor medium

direction of permeability change against corneal-PAMPA (PBS) ([2]; acceptor HA-855 + agar): significant increase
SMILES: O=C(O)Cc1ccccc1Nc1c(Cl)cccc1Cl [diclofenac Na]

SMILES: CNCC[C@H](Oc1cccc2ccccc12)c1cccs1 [duloxetine HCl, duloxetine hydrochloride]
permeability decrease with HA-855 + agar compared with agar alone [2]: decrease the permeability in a greater extent than agar alone

SMILES: CCn1cc(C(=O)O)c(=O)c2cc(F)c(N3CCNCC3)nc21 [enoxacin]
detection in the acceptor medium [3]: could not be detected in the acceptor medium

permeability (qualitative) [4]: low permeability
detection of API in porcine vitreous humor acceptor medium [5]: no API could be detected
SMILES: O=C(c1ccccc1)c1ccc2n1CCC2C(=O)O (centres unmarked) [ketorolac]

permeability (qualitative) [4]: low permeability
detection of API in porcine vitreous humor acceptor medium [5]: no API could be detected
SMILES: COc1c(N2C[C@@H]3CCCN[C@@H]3C2)c(F)cc2c(=O)c(C(=O)O)cn(C3CC3)c12 [moxifloxacin, moxifloxacin hydrochloride]

SMILES: CCCCOc1cc(C(=O)OCCN(CC)CC)ccc1N [oxybuprocaine HCl, oxybuprocaine hydrochloride]
permeability decrease with HA-855 + agar compared with agar alone [2]: decrease the permeability in a greater extent than agar alone

SMILES: N=C(N)c1ccc(OCCCOc2ccc(C(=N)N)cc2)cc1 [propamidine]
detection in the acceptor medium [3]: could not be detected in the acceptor medium

SMILES: CC(C)NCC(O)COc1cccc2ccccc12 (centres unmarked) [propranolol HCl, propranolol hydrochloride]
permeability decrease with HA-855 + agar compared with agar alone [2]: decrease the permeability in a greater extent than agar alone

SMILES: CNC(=C[N+](=O)[O-])NCCSCc1ccc(CN(C)C)o1 [ranitidine, ranitidine hydrochloride]
detection in the acceptor medium [3]: could not be detected in the acceptor medium

SMILES: CCCCNc1ccc(C(=O)OCCN(C)C)cc1 [tetracaine HCl, tetracaine hydrochloride]
permeability decrease with HA-855 + agar compared with agar alone [2]: decrease the permeability in a greater extent than agar alone

SMILES: CC(C)(C)NC[C@H](O)COc1nsnc1N1CCOCC1 [timolol, timolol maleate]
permeability decrease with HA-855 + agar compared with agar alone [2]: decrease the permeability in a greater extent than agar alone

From publication PMC11906762, “Toward a high-throughput in vitro model for estimating vitreous humor permeability of topically applied drugs” (Scientific Reports, 2025)
